Measurements as given in ChEMBL document CHEMBL1687706, “Inhibition of human immunodeficiency virus type 1 replication in human cells by Debio-025, a novel cyclophilin binding agent” (Antimicrob Agents Chemother, 2008).
The source made the active and inactive calls. No cut-off for these calls is given here.

Legend:
Hepatitis C virus = assay: Antiviral activity against HCV infected in human Huh 5.2 cells assessed as reduction in viral RNA level by luciferase reporter gene assay; type: functional, organism-based, Hepacivirus hominis; settings: Huh-5-2
MT4 = assay: Cytotoxicity against human MT4 cells at 0.83 uM by MTT assay; type: cell-based; settings: mt4, 0.83 µM
Rattus norvegicus [1] = assay: Immunosuppressive activity in Sprague-Dawley rat […] model assessed as percent T lymphocytes at 10 mg/kg, po administered once daily for 28 days by flow cytometry; type: functional
[2] = system: Simian immunodeficiency virus; assay: Antiviral activity against Simian immunodeficiency virus PBj infected in human PBMC assessed as inhibition of viral replication by RT activity; type: functional, organism-based
[3] = Antiviral activity against Simian immunodeficiency virus-mac 251 infected in human PBMC assessed as inhibition of viral replication by RT activity; type: functional
[4] = Antiviral activity against HPV-33 infected in CK1 cells assessed as inhibition of viral replication after 7 days; type: functional, Human papillomavirus type 33; settings: human papillomavirus 33, CK1, 168 h; read-out: TC50 (the source's name)
[5] = Antiviral activity against HPV-18 infected in human HeLa cells assessed as inhibition of viral replication after 3 days; type: functional, cell-based; settings: human papillomavirus 18, HeLa, 72 h; read-out: TC50 (the source's name)
Rattus norvegicus [6] = assay: Immunosuppressive activity in Sprague-Dawley rat KHL model assessed as percent cytotoxic T cells at 10 mg/kg, po administered once daily for 28 days by flow cytometry; type: functional, T-cell
Rattus norvegicus [7] = assay: Immunosuppressive activity in Sprague-Dawley rat […] model assessed as IgM level at 10 mg/kg, po administered once daily for 28 days by ELISA; type: functional
[8] = system: Human immunodeficiency virus 1; assay: Antiviral activity against HIV-1 NL4-3 infected in human TZB cells assessed as inhibitory effect on the completion of viral double stranded DNA at 0.5 to 2.5 uM by RT-PCR; type: functional, organism-based
[9] = Antiviral activity against HPV-33 infected in CK1 cells assessed as inhibition of viral replication after 3 days; type: functional, cell-based, Human papillomavirus type 33; settings: human papillomavirus 33, CK1, 72 h; read-out: TC50 (the source's name)
Rattus norvegicus [10] = assay: Immunosuppressive activity in Sprague-Dawley rat KHL model assessed as percent cytotoxic T cells at 25 mg/kg, po administered once daily for 28 days by flow cytometry; type: functional, T-cell
Human alphaherpesvirus 1 [11] = assay: Antiviral activity against Herpes simplex virus 1 F infected in human embryonic lung cells assessed as inhibition of viral replication; type: functional, organism-based; settings: Human alphaherpesvirus 1, strain F
[12] = system: Human immunodeficiency virus 1; settings: Human immunodeficiency virus 1, 3B
Rattus norvegicus [13] = assay: Immunosuppressive activity in Sprague-Dawley rat […] model assessed as IgM level at 25 mg/kg, po administered once daily for 28 days by ELISA; type: functional
[14] = system: Human immunodeficiency virus 1; assay: Antiviral activity against HIV1 subtype B 92BR014 infected in human PBMC assessed as inhibition of viral replication by ELISA; type: functional, organism-based; settings: Human immunodeficiency virus 1, subtype B 92BR014
[15] = system: Human immunodeficiency virus 1; assay: Antiviral activity against HIV-1 NL4-3 infected in human TZB cells assessed as inhibition of accumulation of early viral transcripts at 0.5 to 2.5 uM by RT-PCR; type: functional, organism-based
[16] = system: Human immunodeficiency virus 1; assay: Antiviral activity against HIV1 subtype G Jv1083 infected in human PBMC assessed as inhibition of viral replication by ELISA; type: functional, organism-based; settings: Human immunodeficiency virus 1, subtype G Jv1083
[17] = system: Human immunodeficiency virus 1; assay: microbe, parasite or virus in culture; settings: Human immunodeficiency virus 1, SF2
[18] = Cytotoxicity against human HeLa cells; type: cell-based; settings: read-out: TC50 (the source's name)
[19] = system: Human immunodeficiency virus 1; assay: Antiviral activity against HIV-1 NL4-3 cells infected in human TZB cells assessed as degradation of cDNA at 0.5 to 2.5 uM after 6 hrs postinfection by RT-PCR; type: functional, organism-based
[20] = system: Human immunodeficiency virus 1; assay: Antiviral activity against APV, ATV, LPV, IDV, NFV, RTV, SQV-resistant HIV-1 1064-52 infected in human PBMC assessed as inhibition of viral replication by ELISA; type: functional, organism-based; settings: Human immunodeficiency virus 1, 1064-52
Human alphaherpesvirus 2 = assay: Antiviral activity against Herpes simplex virus 2 G infected in human embryonic lung cells assessed as inhibition of viral replication; type: functional, organism-based; settings: Human alphaherpesvirus 2, strain G
[21] = system: Human immunodeficiency virus 1; assay: Antiviral activity against APV, ATV, IDV, LPV, NFV, RTV, SQV, 3TC, FTC, ABC, AZT, d4T, ddC, ddI, TDF, EFV, DLV, NVP-resistant HIV-1 MDR769 infected in human PBMC assessed as inhibition of viral replication by ELISA; type: functional, organism-based; settings: Human immunodeficiency virus 1, MDR769
Human alphaherpesvirus 1 [22] = assay: Antiviral activity against Herpes simplex virus 1 McIntyre infected in human embryonic lung cells assessed as inhibition of viral replication; type: functional, organism-based; settings: Human alphaherpesvirus 1, McIntyre
[23] = system: Human immunodeficiency virus 1; assay: Antiviral activity against HIV1 subtype B SLKA infected in human PBMC assessed as inhibition of viral replication by ELISA; type: functional, organism-based; settings: Human immunodeficiency virus 1, subtype B SLKA
[24] = system: Human immunodeficiency virus 1; assay: Antiviral activity against HIV1 subtype D 92UG046 infected in human PBMC assessed as inhibition of viral replication by ELISA; type: functional, organism-based; settings: Human immunodeficiency virus 1, subtype D 92UG046
Rattus norvegicus [25] = assay: Immunosuppressive activity in Sprague-Dawley rat […] model assessed as IgM level at 50 mg/kg, po administered once daily for 28 days by ELISA; type: functional
[26] = system: Human immunodeficiency virus 1; assay: Antiviral activity against HIV1 subtype B JR-CSF infected in human PBMC assessed as inhibition of viral replication by ELISA; type: functional; settings: Human immunodeficiency virus 1, JRCSF ISOLATE
[27] = system: Human immunodeficiency virus 1; assay: Antiviral activity against HIV1 subtype B ROJO infected in human PBMC assessed as inhibition of viral replication by ELISA; type: functional, organism-based; settings: Human immunodeficiency virus 1, subtype B ROJO
Human alphaherpesvirus 1 [28] = assay: Antiviral activity against Herpes simplex virus 1 KOS infected in human embryonic lung cells assessed as inhibition of viral replication; type: functional, organism-based; settings: Human alphaherpesvirus 1, KOS
[29] = system: Human immunodeficiency virus 1; assay: Antiviral activity against HIV-1 NL4-3 infected in human TZB cells assessed as inhibition of accumulation of late viral transcripts at 0.5 to 2.5 uM by RT-PCR; type: functional, organism-based
[30] = Cytotoxicity against human HepAD38 cells; type: cell-based; settings: read-out: TC50 (the source's name)
Rattus norvegicus [31] = assay: Immunosuppressive activity in Sprague-Dawley rat […] model assessed as percent T-helper cells at 10 mg/kg, po administered once daily for 28 days by flow cytometry; type: functional
[32] = system: Human immunodeficiency virus 1; assay: Antiviral activity against HIV1 subtype F 93BR020 infected in human PBMC assessed as inhibition of viral replication by ELISA; type: functional, organism-based; settings: Human immunodeficiency virus 1, subtype F 93BR020
Human betaherpesvirus 5 = assay: Antiviral activity against Human cytomegalovirus AD169 infected in human embryonic lung cells assessed as reduction in viral yield; type: functional, organism-based; settings: Human betaherpesvirus 5, AD169, lung
[33] = Cytotoxicity against CRFK; design: species or system Felis catus; settings: cat, CRFK cells; read-out: TC50 (the source's name)
[34] = system: Human immunodeficiency virus 1; assay: Antiviral activity against HIV1 subtype A 92UG037 infected in human PBMC assessed as inhibition of viral replication by ELISA; type: functional, organism-based; settings: Human immunodeficiency virus 1, subtype A 92UG037

Structure (SMILES): C/C=C/C[C@@H](C)[C@@H](O)[C@H]1C(=O)N[C@@H](CC)C(=O)N(C)[C@H](C)C(=O)N(CC)[C@@H](C(C)C)C(=O)N[C@@H](C(C)C)C(=O)N(C)[C@@H](CC(C)C)C(=O)N[C@@H](C)C(=O)N[C@H](C)C(=O)N(C)[C@@H](CC(C)C)C(=O)N(C)[C@@H](CC(C)C)C(=O)N(C)[C@@H](C(C)C)C(=O)N1C [ALISPORIVIR]
- IC50 (Hepatitis C virus): 0.22 µM
- Activity (MT4): Non-toxic
- Activity (Rattus norvegicus [1]): 52.4%
- IC50 [2]: 7.97 µM
- IC50 [3]: 8.24 µM
- CC50 [4]: 0.6 µM
- CC50 [5]: 6.5 µM
- Activity (Rattus norvegicus [6]): 17.6%
- deltaA (Rattus norvegicus [7]): 0.78
- inhibition [8]: Active
- CC50 [9]: 0.4 µM
- Activity (Rattus norvegicus [10]): 18%
- IC50 (Human alphaherpesvirus 1 [11]): > 25 µM
- IC50 [12]: 0.064 µM
- deltaA (Rattus norvegicus [13]): 0.78
- IC50 [14]: 5.65 µM
- inhibition [15]: inactive
- IC50 [16]: 5.53 µM
- IC50 [17]: 0.063 µM
- CC50 [18]: 8.2 µM
- Activity [19]: Active
- IC50 [20]: 0.007 µM
- IC50 (Human alphaherpesvirus 2): > 25 µM
- IC50 [21]: 0.012 µM
- IC50 (Human alphaherpesvirus 1 [22]): > 25 µM
- IC50 [23]: 0.025 µM
- IC50 [24]: 0.01 µM
- deltaA (Rattus norvegicus [25]): 0.67
- IC50 [26]: 0.015 µM
- IC50 [27]: 0.024 µM
- IC50 (Human alphaherpesvirus 1 [28]): > 25 µM
- inhibition [29]: Active
- CC50 [30]: 16.4 µM
- Activity (Rattus norvegicus [31]): 29.8%
- IC50 [32]: 6.25 µM
- IC50 (Human betaherpesvirus 5): 8.9 µM
- CC50 [33]: 10.6 µM
- IC50 [34]: 0.016 µM
